This is an account of results in article PMC11793105, “A kalihinol analog disrupts apicoplast function and vesicular trafficking in P. falciparum malaria” (Science (New York, N.Y.), 2024).

Each structure is given as a SMILES string. Read-outs that look alike come from different tables or passages of the source.

The subject of experiment [1] is P. falciparum 3D7 (MRA-102, drug sensitive). Briefly: SYBR Green I growth inhibition assay, 3D7. The experiment is classed as cell-based. The conditions noted are these: Plasmodium falciparum. As to the method:
Fig. 1. […] (B) SYBR Green–based dose response assays were conducted on early-ring stage parasites (6 hours after invasion). […] 3D7 WT (blue), NF54 (green), drug-resistant strains Dd2 (red), HB3 (black), W2 (gray), and D10-ACP-GFP (purple) lines (Sigmoidal, 4PL, X is concentration, n ≥ 3, nonlinear regression, CI: 95%). (C) Schematic diagram of the development of P. falciparum after two consecutive erythrocytic cycles. The time points at which MED6-189 was introduced are depicted in green. HPS, hours post synchronization. […] The images depict various developmental stages of the parasite’s intraerythrocytic life cycle. Bordered images represent time points when drug was first introduced (n = 3 biological replicates, P < 0.05).
Detailed information on materials and methods is available in the supplementary materials. […] P. knowlesi assays were quantitatively measured by flow cytometry using SYBR Green I and Mitrotracker Deep Red, as previously described ([84], [85]), on a Beckman Coulter CytoFLEX. […]
P. falciparum in vitro SYBR green fluorescence-based assays The anti-malarial activity of individual analogues were evaluated in-vitro against P. falciparum 3D7 (MRA-102, drug […]
green-I based fluorescence assay. Parasite growth rate and stages of development were determined via microscopy through Giemsa-stained smears of the cultures. […]

Experiment [2] relates to P. falciparum 3D7 parasites. Briefly: Isopentenyl pyrophosphate (IPP) rescue assay. It counts as cell-based, Plasmodium falciparum. The settings on record: drug at IC80 for one IEC before IPP (200 μM). The text has this:
Fig. 2. […] Nuclei are stained with 4’,6-diamidino-2-phenylindole (DAPI; blue). […] (B) Dose-dependent interactions between MED6-189 (blue) and various antimalarials with known mechanisms of action (red). […] The regression line represents a nonlinear regression (variable slope with four parameters), with significant differences considered if P < 0.05. […] Isobologram curves are expected to be parallel to the diagonal for additive drug pairs, concave for synergistic drug pairs, and convex for antagonistic drug pairs. […] The analysis was performed using a two-way ANOVA, n = 3, with P < 0.05 significance.
IPP is a product of the MEP/DOXP pathway, and its supplementation reduces susceptibility to MEP inhibitors. […] Parasites were drugged at 80% inhibitory concentrations (IC80) for one IEC before IPP (200 μM) supplementation.

In experiment [3] the test system is S. cerevisiae strains with overexpressed or repressed Sec13p. The experiment is classed as cell-based, Saccharomyces cerevisiae. The conditions noted are these: Tet-off promoter, doxycycline, vs WT yeast. An excerpt:
Fig. 4. […] (C) Schematic representation of the CRISPR-Cas9–based replacement strategy used to introduce a deletion of the targeted repeat regions in the PfSec13 gene. The insertion was achieved through overlap extension polymerase chain reaction (PCR) of fragments directly upstream and downstream of the target segment and subsequently formed by primer overlap extension PCR to replicate the desired deletion. […] (D) Predicted structure of the SEC13 protein highlighting the seven amino acid tandem repeat regions targeted for deletion (red). […] Data were analyzed using a Sigmoidal, 4PL (X represents concentration, n = 3, nonlinear regression, CI: 95%).
PCR amplification and introduced into an episomal E. coli/yeast shuttle vector, pRS425, by using an in-fusion cloning kit (Takara Bio USA, Inc) and the resulting pRS425-SEC13 plasmid was transformed into the BY4741 yeast strain. To swiftly repress the SEC13 gene, we utilized the tet-off system. This involved substituting the native SEC13 gene promoter with a tetracycline (tet)- regulatable counterpart, while leaving the original SEC13 open reading frame intact. The yeast

As for `[C-]#[N+][C@]1(C)CC[C@H]2[C@@H]([C@@H](C(C)C)CC[C@]2(C)[N+]#[C-])[C@H]1O` [MED6-189], the IC50 worked out at 0.015 µM in experiment [1] (3D7, read-out: IC50 (µM) P. falciparum (3D7)) and 0.014 ± 0.002 µM in experiment [1] (3D7, early-ring stage (6 h after invasion), 72 h exposure, read-out: IC50). Moreover, the “rescue of parasites by IPP supplementation” value in experiment [2] is on record as “can only be rescued by IPP for one additional cycle”. For the same molecule, the “increase in susceptibility on Sec13p repression” value in experiment [3] is on record as ~ 5.5 fold.
